The results in this text go back to patent US20060252918A1, “Use of hepatitis virus (hcv) p7 protein” (priority 2002, published 2006).

For one data set, the target named is T1, HCV p7 (Hepatitis C virus genotype 1b, UniProt O92972).
T1 construct: the p7 protein of HCV is a 63 amino acid protein; expressed in transfected cells; host or cells: Vero cells (T7-driven expression, lipofectamine transfection)
T1 sequence (O92972 747-809 limits assumed): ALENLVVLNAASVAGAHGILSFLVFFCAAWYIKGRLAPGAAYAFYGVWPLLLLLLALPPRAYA
It is filed as cell-based.

Data set [1] has as its target T2, HISp7 (HCV p7 with 6-HIS linker) (Hepatitis C virus genotype 1b, UniProt O92972).
T2 construct: the p7 protein of HCV is a 63 amino acid protein; GST (N, cleaved yes); made in house; host or cells: E. coli (pGEXHISp7 in pGEX4T1; DH5alpha is named for cloning)
T2 sequence (O92972 747-809 limits assumed): T1 sequence (O92972 747-809 limits assumed)
It is filed as biochemical, hepatitis C virus 1B (J4 isolate).

Data set [2] deals with the molecule itself. Description: self-association in HepG2 cell membranes.

As for `NC12CC3CC(CC(C3)C1)C2` [amantadine], at HCV p7, the “inhibition of HA transport facilitated by HCV p7” value is “HA transport is inhibited”. Moreover, the “inhibition of ion channel formation by HISp7” value in data set [1] is listed as “inhibits ion channel formation by HISp7 FIG. 9) in the micromolar range”.

B1: hepatitis C virus (HCV) p7 protein (other)
chain: T1 sequence (O92972 747-809 limits assumed)
notes: mature; p7 expressed alone in hepatocyte-derived (HepG2) cells; The mammalian expression construct is not described; p7 is the 63-residue part of it
On to B1, for which the binding result in data set [2] is listed as “binds”.
